# Patent US20150218212A1, “FLUORINATED EPOXYKETONE-BASED TETRAPEPTIDE COMPOUNDS AND USES THEREOF AS PROTEASOME INHIBITORS” (FLUORINOV PHARMA INC., priority 2012, published 2015)
# Experiments:
# Type in all cases: cell-based, human
# SK-MEL-5 = experiment: NCI screening panel, SK-MEL-5 (Melanoma)
# Procedure: (§1) Representative compounds of Formula I were screened using the National Cancer Institute (NCI) screening panel, which consists of a panel of human tumor cell lines, representing leukemia, melanoma, and cancers of the lung, colon, ovary, breast, prostate and renal system.
# (§2) After 24 h, two plates of each cell line are fixed in situ with TCA, to represent a measurement of the cell population for each cell line at the time of drug addition (Tz). Experimental drugs are solubilised in dimethyl sulfoxide at 400-fold the desired final maximum test concentration and stored frozen prior to use. At the time of drug addition, an aliquot of frozen concentrate is thawed and diluted to twice the desired final maximum test concentration with complete medium containing 50 μg/mL gentamicin. Additional four, 10-fold or ½ log serial dilutions are made to provide a total of five drug concentrations plus control. Aliquots of 100 μl of these different drug dilutions are added to the appropriate microtiter wells already containing 100 μl of medium, resulting in the required final drug concentrations.
# (§3) Following drug addition, the plates are incubated for an additional 48 h at 37° C., 5% CO2, 95% air, and 100% relative humidity. For adherent cells, the assay is terminated by the addition of cold TCA (trichloroacetic acid). Cells are fixed in situ by the gentle addition of 50 μl of cold 50% (w/v) TCA (final concentration, 10% TCA) and incubated for 60 minutes at 4° C. The supernatant is discarded, and the plates are washed five times with tap water and air dried. Sulforhodamine B (SRB) solution (100 μl) at 0.4% (w/v) in 1% acetic acid is added to each well, and plates are incubated for 10 minutes at room temperature. After staining, unbound dye is removed by washing five times with 1% acetic acid and the plates are air dried. Bound stain is subsequently solubilised with 10 mM trizma base, and the absorbance is read on an automated plate reader at a wavelength of 515 nm. For suspension cells, the methodology is the same except that the assay is terminated by fixing settled cells at the bottom of the wells by gently adding 50 μl of 80% TCA (final concentration, 16% TCA). Using the seven absorbance measurements [time zero, (Tz), control growth, (C), and test growth in the presence of drug at the five concentration levels (Ti)], the percentage growth is calculated at each of the drug concentrations levels. Percentage growth inhibition is calculated as: [(Ti−Tz)/(C−Tz)]×100 for concentrations for which Ti>/=Tz and [(Ti−Tz)/Tz]×100 for concentrations for which Ti<Tz.
# (§4) Three dose response parameters are calculated for each experimental agent. Growth inhibition of 50% (GI50) is calculated from [(Ti−Tz)/(C−Tz)]×100=50, which is the drug concentration resulting in a 50% reduction in the net protein increase (as measured by SRB staining) in control cells during the drug incubation. The drug concentration resulting in total growth inhibition (TGI) is calculated from Ti=Tz. The LC50 (concentration of drug resulting in a 50% reduction in the measured protein at the end of the drug treatment as compared to that at the beginning) indicating a net loss of cells following treatment is calculated from [(Ti−Tz)/Tz]×100=−50. Values are calculated for each of these three parameters if the level of activity is reached. However, if the effect is not reached or is exceeded, the value for that parameter is expressed as greater or less than the maximum or minimum concentration tested.
# HCT-116 = experiment: NCI screening panel, HCT-116 (Colon Cancer)
# Procedure: as §1, §2, §3, §4
# TK-10 = experiment: NCI screening panel, TK-10 (Renal Cancer)
# Procedure: as §1, §2, §3, §4
# SN12C = experiment: NCI screening panel, SN12C (Renal Cancer)
# Procedure: as §1, §2, §3, §4
# HCT-15 = experiment: NCI screening panel, HCT-15 (Colon Cancer)
# Procedure: as §1, §2, §3, §4
# A549/ATCC = experiment: NCI screening panel, A549/ATCC (Non-Small Cell Lung Cancer)
# Procedure: as §1, §2, §3, §4
# M14 = experiment: NCI screening panel, M14 (Melanoma)
# Procedure: as §1, §2, §3, §4
# NCI-H522 = experiment: NCI screening panel, NCI-H522 (Non-Small Cell Lung Cancer)
# Procedure: as §1, §2, §3, §4
# NCI-H322M = experiment: NCI screening panel, NCI-H322M (Non-Small Cell Lung Cancer)
# Procedure: as §1, §2, §3, §4
# UACC-62 = experiment: NCI screening panel, UACC-62 (Melanoma)
# Procedure: as §1, §2, §3, §4
# OVCAR-3 = experiment: NCI screening panel, OVCAR-3 (Ovarian Cancer)
# Procedure: as §1, §2, §3, §4
# SK-MEL-2 = experiment: NCI screening panel, SK-MEL-2 (Melanoma)
# Procedure: as §1, §2, §3, §4
# HT29 = experiment: NCI screening panel, HT29 (Colon Cancer)
# Procedure: as §1, §2, §3, §4
# SK-MEL-28 = experiment: NCI screening panel, SK-MEL-28 (Melanoma)
# Procedure: as §1, §2, §3, §4
# OVCAR-5 = experiment: NCI screening panel, OVCAR-5 (Ovarian Cancer)
# Procedure: as §1, §2, §3, §4
# MOLT-4 = experiment: NCI screening panel, MOLT-4 (Leukemia)
# Procedure: as §1, §2, §3, §4
# SR = experiment: NCI screening panel, SR (Leukemia)
# Procedure: as §1, §2, §3, §4
# MALME-3M = experiment: NCI screening panel, MALME-3M (Melanoma)
# Procedure: as §1, §2, §3, §4
# NCI-H23 = experiment: NCI screening panel, NCI-H23 (Non-Small Cell Lung Cancer)
# Procedure: as §1, §2, §3, §4
structure (smiles),measurement,setting,value
"CC(C)C[C@H](NC(=O)[C@H](COC(F)F)NC(=O)CN1CCOCC1)C(=O)N[C@@H](COC(F)F)C(=O)N[C@@H](Cc1ccccc1)C(=O)[C@@]1(C)CO1 [Example 4, (2S)-N-[(1S)-2-[[(1S)-1-benzyl-2-[(2R)-2-methyloxiran-2-yl]-2-oxo-ethyl]amino]-1-(difluoromethoxymethyl)-2-oxo-ethyl]-2-[[(2S)-3-(difluoromethoxy)-2-[(2-mor-pholinoacetyl)amino]propanoyl]amino]-4 methyl-pentanamide]",Log10GI50,SK-MEL-5,−7.33
same,Log10LC50,SK-MEL-5,−5.71
same,Log10TGI50,SK-MEL-5,−6.60
same,Log10GI50,HCT-116,−7.70
same,Log10LC50,HCT-116,−4.57
same,Log10TGI50,HCT-116,−6.98
same,Log10GI50,TK-10,−6.57
same,Log10LC50,TK-10,>−4.00
same,Log10TGI50,TK-10,−5.48
same,Log10GI50,SN12C,−7.20
same,Log10LC50,SN12C,−4.79
same,Log10TGI50,SN12C,−6.47
same,Log10GI50,HCT-15,−5.91
same,Log10LC50,HCT-15,>−4.00
same,Log10TGI50,HCT-15,−4.62
same,Log10GI50,A549/ATCC,−7.38
same,Log10LC50,A549/ATCC,>−4.00
same,Log10TGI50,A549/ATCC,−4.55
same,Log10GI50,M14,−6.97
same,Log10LC50,M14,>−4.00
same,Log10TGI50,M14,−5.66
same,Log10GI50,NCI-H522,−7.75
same,Log10LC50,NCI-H522,−6.06
same,Log10TGI50,NCI-H522,−7.11
same,Log10GI50,NCI-H322M,−6.73
same,Log10LC50,NCI-H322M,−4.18
same,Log10TGI50,NCI-H322M,−5.81
same,Log10GI50,UACC-62,−7.39
same,Log10LC50,UACC-62,−4.67
same,Log10TGI50,UACC-62,−6.59
same,Log10GI50,OVCAR-3,−7.43
same,Log10LC50,OVCAR-3,−6.11
same,Log10TGI50,OVCAR-3,−6.89
same,Log10GI50,SK-MEL-2,−7.57
same,Log10LC50,SK-MEL-2,>−4.00
same,Log10TGI50,SK-MEL-2,−6.86
same,Log10GI50,HT29,−7.50
same,Log10LC50,HT29,>−4.00
same,Log10TGI50,HT29,−5.63
same,Log10GI50,SK-MEL-28,−7.35
same,Log10LC50,SK-MEL-28,−4.79
same,Log10TGI50,SK-MEL-28,−6.62
same,Log10GI50,OVCAR-5,−7.29
same,Log10LC50,OVCAR-5,>−4.00
same,Log10TGI50,OVCAR-5,−6.07
same,Log10GI50,MOLT-4,−7.82
same,Log10LC50,MOLT-4,>−4.00
same,Log10TGI50,MOLT-4,−7.07
same,Log10GI50,SR,−7.66
same,Log10LC50,SR,>−4.00
same,Log10TGI50,SR,>−4.00
same,Log10GI50,MALME-3M,−7.49
same,Log10LC50,MALME-3M,>−4.00
same,Log10TGI50,MALME-3M,−6.38
same,Log10GI50,NCI-H23,−7.51
same,Log10LC50,NCI-H23,−4.31
same,Log10TGI50,NCI-H23,−6.63
"CC(C)C[C@H](NC(=O)[C@H](COC(F)F)NC(=O)[C@H](COC(F)F)NC(=O)[C@H](CCc1ccccc1)NC(=O)CN1CCOCC1)C(=O)[C@@]1(C)CO1 [Example 7, (2S)-N-[(1S)-1-(difluoromethoxymethyl)-2-[[(1S)-1-(difluoromethoxymethyl)-2-[[(1S)-3-methyl-1-[(2R)-2-methyloxirane-2-carbo-nyl]butyl]amino]-2-oxo-ethyl]amino]-2-oxo-ethyl]-2-[(2-morpholinoacetyl)amino]-4-phenyl-butanamide]",Log10GI50,SK-MEL-5,−7.55
same,Log10LC50,SK-MEL-5,−6.35
same,Log10TGI50,SK-MEL-5,−6.99
same,Log10GI50,HCT-116,<−8.00
same,Log10LC50,HCT-116,>−4.00
same,Log10TGI50,HCT-116,−6.78
same,Log10GI50,TK-10,−6.56
same,Log10LC50,TK-10,>−4.00
same,Log10TGI50,TK-10,−5.24
same,Log10GI50,SN12C,−7.46
same,Log10LC50,SN12C,−5.85
same,Log10TGI50,SN12C,−6.77
same,Log10GI50,HCT-15,−5.89
same,Log10LC50,HCT-15,>−4.00
same,Log10TGI50,HCT-15,>−4.00
same,Log10GI50,A549/ATCC,−7.43
same,Log10LC50,A549/ATCC,>−4.00
same,Log10TGI50,A549/ATCC,>−4.00
same,Log10GI50,M14,−7.11
same,Log10LC50,M14,>−4.00
same,Log10TGI50,M14,−5.70
same,Log10GI50,NCI-H522,−7.88
same,Log10LC50,NCI-H522,−4.62
same,Log10TGI50,NCI-H522,−7.20
same,Log10GI50,NCI-H322M,−7.04
same,Log10LC50,NCI-H322M,−4.81
same,Log10TGI50,NCI-H322M,−6.35
same,Log10GI50,UACC-62,−7.49
same,Log10LC50,UACC-62,−4.37
same,Log10TGI50,UACC-62,−6.73
same,Log10GI50,OVCAR-3,−7.64
same,Log10LC50,OVCAR-3,−6.40
same,Log10TGI50,OVCAR-3,−7.24
same,Log10GI50,SK-MEL-2,−7.54
same,Log10LC50,SK-MEL-2,>−4.00
same,Log10TGI50,SK-MEL-2,−6.86
same,Log10GI50,HT29,<−8.00
same,Log10LC50,HT29,>−4.00
same,Log10TGI50,HT29,−4.93
same,Log10GI50,SK-MEL-28,−7.44
same,Log10TGI50,SK-MEL-28,>−4.00
same,Log10GI50,OVCAR-5,−7.31
same,Log10LC50,OVCAR-5,>−4.00
same,Log10TGI50,OVCAR-5,−6.14
same,Log10GI50,MOLT-4,−7.71
same,Log10LC50,MOLT-4,>−4.00
same,Log10TGI50,MOLT-4,−6.85
same,Log10GI50,SR,−7.64
same,Log10LC50,SR,>−4.00
same,Log10TGI50,SR,>−4.00
same,Log10GI50,MALME-3M,−7.39
same,Log10LC50,MALME-3M,>−4.00
same,Log10TGI50,MALME-3M,−6.75
same,Log10GI50,NCI-H23,−7.57
same,Log10LC50,NCI-H23,>−4.00
same,Log10TGI50,NCI-H23,−5.58
